From ChEMBL document CHEMBL1123875, “Plant antitumor agents. 25. Total synthesis and antileukemic activity of ring A substituted camptothecin analogues. Structure-activity correlations” (J Med Chem, 1987)
Values after ≈ are worked out from the molar mass of the structure shown. Active and inactive are the calls of the source. No cut-off for these calls is given here.

Experiments:
Mus musculus [1] = experiment: (§1) In vivo antileukemic activity against L-1210 mouse leukemia cells expressed as % T/C (median survival time of treated/control animals) x 100; IA means inactive; assay type: functional, organism-based
KB [2] = experiment: In vitro cytotoxic activity against KB cell culture, expressed as ED50 (concentration resulting in a 50% cell number reduction) was determined; IA means inactive; assay type: functional, cell-based; details: Homo sapiens
[3] = In vitro cytotoxic activity against KB cell culture.; assay type: functional; details: Homo sapiens, read-out: ED50 (the source's name)
Mus musculus [4] = experiment: In vivo antileukemic activity against L-1210 mouse leukemia cells and number of animals cured out of 6; assay type: functional
L1210 [5] = experiment: Active dose range for antileukemic activity against L1210 mouse leukemia cells was reported; assay type: functional
Mus musculus [6] = experiment: In vivo antileukemic activity against L-1210 mouse leukemia cells expressed as […] (log10 of initial tumor cell population minus log10 of tumor cell population at end of treatment); assay type: functional
Mus musculus [7] = experiment: In vivo antileukemic activity against L-1210 mouse leukemia cells expressed as % T/C (median survival time of treated/control animals) x 100; assay type: functional
L1210 [8] = experiment: Toxic dose against L1210 mouse leukemia cells was determined; assay type: toxicity
L1210 [9] = experiment: Active dose range for antileukemic activity against L1210 mouse leukemia cells was reported; dose range may vary from 20 to 80; assay type: functional
Mus musculus [10] = experiment: In vivo antileukemic activity against L-1210 mouse leukemia cells expressed as KE (log10 of initial tumor cell population minus log10 of tumor cell population at end of treatment); assay type: functional
Mus musculus [11] = experiment: In vivo antileukemic activity against L-1210 mouse leukemia cells expressed as % T/C (median survival time of treated/control animals) x 100 after 80 mg/kg administration of dose; assay type: functional
Mus musculus [12] = experiment: In vivo antileukemic activity against L-1210 mouse leukemia cells given as number of animals cured out of 6; assay type: functional
KB [13] = experiment: In vitro cytotoxic activity against KB cell culture, expressed as ED50 (concentration resulting in a 50% cell number reduction) was determined; In active; assay type: functional, cell-based; details: Homo sapiens
L1210 [14] = experiment: In vivo antileukemic activity against L-1210 mouse leukemia cells expressed as % T/C (median survival time of treated/control animals) x 100; In active; assay type: functional, organism-based
L1210 [15] = experiment: Active dose range for antileukemic activity against L1210 mouse leukemia cells was reported; dose range may vary from 10 to 80; assay type: functional
Mus musculus [16] = experiment: In vivo antileukemic activity against L-1210 mouse leukemia cells expressed as % T/C (median survival time of treated/control animals) x 100 after 10 mg/kg administration of dose; assay type: functional
L1210 [17] = experiment: Active dose range for antileukemic activity against L1210 mouse leukemia cells was reported 2 to 4; assay type: functional
Mus musculus [18] = experiment: In vivo antileukemic activity against L-1210 mouse leukemia cells expressed as % T/C (median survival time of treated/control animals) x 100 after 2 mg/kg administration of dose; assay type: functional
L1210 [19] = experiment: Active dose range for antileukemic activity against L1210 mouse leukemia cells was reported; dose range may vary from 0.25 to 5.0; assay type: functional
Mus musculus [20] = experiment: In vivo antileukemic activity against L-1210 mouse leukemia cells expressed as % T/C (median survival time of treated/control animals) x 100 after 2.5 mg/kg administration of dose; assay type: functional
L1210 [21] = experiment: Active dose range for antileukemic activity against L1210 mouse leukemia cells was reported; dose range may vary from 7.5 to 60; assay type: functional
Mus musculus [22] = experiment: In vivo antileukemic activity against L-1210 mouse leukemia cells expressed as % T/C (median survival time of treated/control animals) x 100 after 60 mg/kg administration of dose; assay type: functional
Mus musculus [23] = experiment: In vivo antileukemic activity against L-1210 mouse leukemia cells expressed as % T/C (median survival time of treated/control animals) x 100 after 40 mg/kg administration of dose; assay type: functional
Mus musculus [24] = experiment: as §1; assay type: functional, organism-based; remark: listed apart in the source
L1210 [25] = experiment: Active dose range for antileukemic activity against L1210 mouse leukemia cells was reported; dose range may vary from 7.5 to 15.5; assay type: functional
Mus musculus [26] = experiment: In vivo antileukemic activity against L-1210 mouse leukemia cells expressed as % T/C (median survival time of treated/control animals) x 100 after 15.5 mg/kg administration of dose; assay type: functional
L1210 [27] = experiment: Active dose range for antileukemic activity against L1210 mouse leukemia cells was reported; dose range may vary from 10 to 20; assay type: functional
Mus musculus [28] = experiment: In vivo antileukemic activity against L-1210 mouse leukemia cells expressed as % T/C (median survival time of treated/control animals) x 100 after 3.75 mg/kg administration of dose; assay type: functional
L1210 [29] = experiment: Active dose range for antileukemic activity against L1210 mouse leukemia cells was reported; dose range may vary from 2 to 15.5; assay type: functional

For CCC1(O)C(=O)OCc2c1cc1n(c2=O)Cc2cc3ccc(N(C)C)cc3nc2-1 (centres undefined), the T/C (Mus musculus [1]) was “inactive” and the ED50 (KB [2]) was “inactive”.
For CCC1(O)C(=O)OCc2c1cc1n(c2=O)Cc2cc3ccc(CO)cc3nc2-1 (centres undefined), the T/C (Mus musculus [1]) was “inactive” and the EC50 [3] was 0.3 µg/mL (≈ 0.793 µM).
Br.CCC1(O)C(=O)OCc2c1cc1n(c2=O)Cc2cc3cc(O)c(O)cc3nc2-1 (centres undefined) showed a No. of cures (Mus musculus [4]) of 0, an EC50 [3] of 3 µg/mL and an Active dose range (L1210 [5]) of 10 mg/kg. The T/C (Mus musculus [6]) was 2.62%, the T/C (Mus musculus [7]) was 173% and the Toxic dose (L1210 [8]) was greater than 80 mg/kg.
CCC1(O)C(=O)OCc2c1cc1n(c2=O)Cc2cc3ccc([N+](=O)[O-])cc3nc2-1 (centres undefined) showed an Active dose range (L1210 [9]) of 80 mg/kg, an EC50 [3] of 3 µg/mL (≈ 7.63 µM) and a KE (Mus musculus [10]) of 0.29 log10 units. It also gave a T/C (Mus musculus [11]) of 147%, a Toxic dose (L1210 [8]) greater than 80 mg/kg and a No. of cures (Mus musculus [12]) of 0.
CCC1(O)C(=O)OCc2c1cc1n(c2=O)Cc2cc3cc(O)c(O)cc3nc2-1 (centres undefined) gave a No. of cures (Mus musculus [4]) of 1, an EC50 [3] of 1 µg/mL (≈ 2.63 µM) and an Active dose range (L1210 [5]) of 10 mg/kg. It also gave a T/C (Mus musculus [6]) of 0.87%, a T/C (Mus musculus [7]) of 153% and a Toxic dose (L1210 [8]) greater than 80 mg/kg.
In the case of CCC1(O)C(=O)OCc2c1cc1n(c2=O)Cc2cc3cc(OC)c(OC)cc3nc2-1 (centres undefined), the T/C (Mus musculus [1]) is reported as “inactive” and the EC50 [3] is reported as 9 µg/mL (≈ 22 µM).
In the case of CCC1(O)C(=O)OCc2c1cc1n(c2=O)Cc2cc3ccc(C(=O)OC)cc3nc2-1 (centres undefined), the T/C (Mus musculus [1]) is reported as “inactive” and the EC50 [3] is reported as 5 µg/mL (≈ 12.3 µM).
For CCC1(O)C(=O)OCc2c1cc1n(c2=O)Cc2cc3ccc(/C=N\N=C(N)N)cc3nc2-1 (racemic), the ED50 (KB [13]) was “inactive” and the T/C (L1210 [14]) was “inactive”.
For CCC1(O)C(=O)OCc2c1cc1n(c2=O)Cc2cc3ccc(CN)cc3nc2-1 (centres undefined) [listing 1 of 2 here], the EC50 [3] was 2 µg/mL (≈ 5.3 µM).
Compound CCC1(O)C(=O)OCc2c1cc1n(c2=O)Cc2cc3cc(C)ccc3nc2-1 (centres undefined) has an EC50 [3] of 0.08 µg/mL (≈ 0.221 µM), an Active dose range (L1210 [15]) of 80 mg/kg and a KE (Mus musculus [10]) of 4.66 log10 units. The T/C (Mus musculus [16]) was 207%, the Toxic dose (L1210 [8]) was greater than 80 mg/kg and the No. of cures (Mus musculus [12]) was 0.
Work on CCC1(O)C(=O)OCc2c1cc1n(c2=O)Cc2cc3cc4c(cc3nc2-1)OCO4 (centres undefined) yielded an Active dose range (L1210 [17]) of 4 mg/kg, an EC50 [3] of 0.007 µg/mL (≈ 0.0178 µM) and a T/C (Mus musculus [18]) of 325%. It also gave a KE (Mus musculus [10]) of no less than 5.97 log10 units, a Toxic dose (L1210 [8]) greater than 8 mg/kg and a No. of cures (Mus musculus [12]) of 2.
For CC[C@@]1(O)C(=O)OCc2c1cc1n(c2=O)Cc2cc3c(N)cccc3nc2-1 [9-AMINOCAMPTOTHECIN], the EC50 [3] was 0.02 µg/mL (≈ 0.055 µM), the Active dose range (L1210 [19]) was 5 mg/kg and the KE (Mus musculus [10]) was no less than 5.97 log10 units. The T/C (Mus musculus [20]) was 361%, the Toxic dose (L1210 [8]) was 10 mg/kg and the No. of cures (Mus musculus [12]) was 4.
CCC1(O)C(=O)OCc2c1cc1n(c2=O)Cc2cc3ccc(O)cc3nc2-1 (centres undefined) gave an EC50 [3] of 0.02 µg/mL (≈ 0.0549 µM), an Active dose range (L1210 [21]) of 60 mg/kg and a T/C (Mus musculus [22]) of 357%. For the same compound, the KE (Mus musculus [10]) was no less than 5.68 log10 units, the Toxic dose (L1210 [8]) was greater than 60 mg/kg and the No. of cures (Mus musculus [12]) was 3.
With CCC1(O)C(=O)OCc2c1cc1n(c2=O)Cc2cc3ccc(C=O)cc3nc2-1 (centres undefined) the EC50 [3] was 5 µg/mL (≈ 13.3 µM) and the T/C (L1210 [14]) was “inactive”.
For CCC1(O)C(=O)OCc2c1cc1n(c2=O)Cc2cc3ccc(N)cc3nc2-1 (centres undefined), the EC50 [3] was 0.02 µg/mL (≈ 0.055 µM), the T/C (Mus musculus [23]) was 147% and the Active dose range (L1210 [15]) was 80 mg/kg. It also gave a KE (Mus musculus [10]) of 0.29 log10 units, a Toxic dose (L1210 [8]) greater than 80 mg/kg and a No. of cures (Mus musculus [12]) of 0.
Compound CCC1(O)C(=O)OCc2c1cc1n(c2=O)Cc2cc3ccc(C)cc3nc2-1 (centres undefined) has an Active dose range (L1210 [9]) of 80 mg/kg, an EC50 [3] of 0.9 µg/mL (≈ 2.48 µM) and a T/C (Mus musculus [23]) of 136%. It also gave a KE (Mus musculus [10]) of -0.68 log10 units, a Toxic dose (L1210 [8]) greater than 80 mg/kg and a No. of cures (Mus musculus [12]) of 0.
In the case of CCC1(O)C(=O)OCc2c1cc1n(c2=O)Cc2cc3ccc(C(=O)[O-])cc3nc2-1.[Na+] (centres undefined), the T/C (Mus musculus [1]) is reported as “inactive”, the T/C (Mus musculus [24]) is reported as “inactive” and the EC50 [3] is reported as 0.3 µg/mL. The ED50 (KB [2]) was “inactive”.
For CCC1(O)C(=O)OCc2c1cc1n(c2=O)Cc2cc3cc([N+](=O)[O-])ccc3nc2-1 (centres undefined), the EC50 [3] was 0.3 µg/mL (≈ 0.763 µM), the Active dose range (L1210 [25]) was 15.5 mg/kg and the KE (Mus musculus [10]) was no less than 5.86 log10 units. It also gave a T/C (Mus musculus [26]) of 219%, a Toxic dose (L1210 [8]) of 31 mg/kg and a No. of cures (Mus musculus [12]) of 1.
In the case of CCC1(O)C(=O)OCc2c1cc1n(c2=O)Cc2cc3ccc(CN)cc3nc2-1 (centres undefined) [listing 2 of 2 here], the T/C (Mus musculus [1]) is reported as “inactive”.
With CCC1(O)C(=O)OCc2c1cc1n(c2=O)Cc2cc3ccc(CN)cc3nc2-1.Cl (centres undefined) the EC50 [3] was 4 µg/mL.
For CCC1(O)C(=O)OCc2c1cc1n(c2=O)Cc2cc3ccc(C(F)(F)F)cc3nc2-1 (centres undefined), the T/C (Mus musculus [1]) was “inactive” and the EC50 [3] was 0.9 µg/mL (≈ 2.16 µM).
CCC1(O)C(=O)OCc2c1cc1n(c2=O)Cc2cc3cc(Cl)ccc3nc2-1 (centres undefined) showed an EC50 [3] of 0.01 µg/mL (≈ 0.0261 µM), a KE (Mus musculus [10]) of no less than 5.97 log10 units and a T/C (Mus musculus [16]) of 280%. The Active dose range (L1210 [27]) was 20 mg/kg, the Toxic dose (L1210 [8]) was 40 mg/kg and the No. of cures (Mus musculus [12]) was 2.
Work on CCC1(O)C(=O)OCc2c1cc1n(c2=O)Cc2cc3ccc(C#N)cc3nc2-1 (centres undefined) yielded an EC50 [3] of 0.3 µg/mL (≈ 0.803 µM), a KE (Mus musculus [10]) of no less than 5.79 log10 units and a T/C (Mus musculus [16]) of 365%. For the same compound, the Active dose range (L1210 [27]) was “<=20 mg kg-1”, the Toxic dose (L1210 [8]) was 20 mg/kg and the No. of cures (Mus musculus [12]) was 3.
Compound CCC1(O)C(=O)OCc2c1cc1n(c2=O)Cc2cc3cc(N)ccc3nc2-1 (centres undefined) has a T/C (Mus musculus [28]) of 365%, an EC50 [3] of 0.03 µg/mL (≈ 0.0826 µM) and an Active dose range (L1210 [29]) of 15.5 mg/kg. For the same compound, the KE (Mus musculus [10]) was no less than 5.97 log10 units, the Toxic dose (L1210 [8]) was 32 mg/kg and the No. of cures (Mus musculus [12]) was 3.
